Laboratory results reported in paper PMC4080980, “The pharmacokinetics of anthocyanins and their metabolites in humans” (British Journal of Pharmacology, 2014).
Marks after values point to notes of the source that are not given here.

Tests used:
Type in all cases: in vivo, humans
[1] = Faecal recovery after 500 mg oral bolus of 13C5-C3G; conditions: faeces, 500 mg oral 13C5-C3G; for Recovery 6–24 h / Recovery 24–48 h: mean ± SEM; for Recovery 0–6 h: 0–6 h (only 2 participants provided voids)
Experimental: The study was conducted at the Clinical Research and Trials Unit at the University of East Anglia according to the principles expressed in the Declaration of Helsinki and was approved by the Cambridgeshire 3 Research Ethics Committee (REC ref: 10/H0306/42) and registered at clinicaltrials.gov as NCT01106729.
Sample extracts (5 μL) were injected onto a Kinetex PFP column (Phenomonex) and separated using an Agilent 1200 series HPLC with a QTrap 4000 linear ion trap mass spectrometer (ABSciex, Warrington, UK). […] Metabolite identification was performed by multiple reaction monitoring (MRM) optimized for the detection of pure standards with m/z of the parent and daughter fragments adjusted to +2,+3,+5 amu to allow identification of the ^13C-labelled metabolites derived from the B-ring, A-ring or the parent structure respectively. […] The HPLC-ESI-MS/MS method was validated for linearity and precision across all metabolites.
Pharmacokinetic parameters were established for each individual analyte and presented as mean ± SEM. Urine samples collected during the first 6 h post-bolus were grouped together to the nearest hour time point (i.e. samples were not pooled but individual concentrations were averaged post-quantification) for graphical representation and to calculate total cumulative recovery. The concentration of metabolites was converted to amount recovered from urine by accounting for the molecular weight of the individual ^13C-labelled metabolites and the volume of the individual participants void and averaged across participants. […] Urine and faecal recovery amounts are presented as mean ± SEM (n = 8), unless otherwise stated.

[2] = Urinary elimination/recovery after 500 mg oral bolus of 13C5-C3G; conditions: urine, single 500 mg oral 13C5-C3G; for Total recovery: 0-48 h; for Total recovery / Maximum concentration: mean ± SEM; for Tmax: male, human, po, 500 mg, urine collection interval, read-out: Time at maximum concentration
Experimental: (§1) A detailed description of the clinical design was previously published ([Czank et al., 2013]). Briefly, a single 500 mg oral bolus dose of isotopically labelled C3G (^13C5-C3G) was fed to eight healthy male participants (body mass index, 18.5–30.5 kg·m^–2; aged 18–45 years) after an overnight fast (>8 h). Participants provided blood (baseline, 0.5, 1, 2, 4, 6, 24, 48 h), urine (individual voids between 0 and 6 h, total voids between 6–24 and 24–48 h), breath (baseline, 0.5, 1, 2, 4, 6, 24, 48 h) and faecal samples (all voids between 0–6, 6–24 and 24–48 h). The study was conducted at the Clinical Research and Trials Unit at the University of East Anglia according to the principles expressed in the Declaration of Helsinki and was approved by the Cambridgeshire 3 Research Ethics Committee (REC ref: 10/H0306/42) and registered at clinicaltrials.gov as NCT01106729.
(§2) Serum, urine and faecal samples were extracted by SPE and analysed by HPLC-ESI-MS/MS as recently described ([Czank et al., 2013]). The extraction efficiency was established as 87 ± 11% (coefficient of variation, CV; 6.8 ± 0.7%) for serum, 88 ± 18% (CV, 7.9 ± 0.8%) for urine and 81 ± 21% (CV, 14.1 ± 1.2%) for faeces (n = 3 replicates for each analyte). Sample extracts (5 μL) were injected onto a Kinetex PFP column (Phenomonex) and separated using an Agilent 1200 series HPLC with a QTrap 4000 linear ion trap mass spectrometer (ABSciex, Warrington, UK). […] Metabolite identification was performed by multiple reaction monitoring (MRM) optimized for the detection of pure standards with m/z of the parent and daughter fragments adjusted to +2,+3,+5 amu to allow identification of the ^13C-labelled metabolites derived from the B-ring, A-ring or the parent structure respectively. Metabolites were confirmed on the basis of retention time (using authentic and synthesized standards where possible) and three or more ion transitions. The HPLC-ESI-MS/MS method was validated for linearity and precision across all metabolites. Six point standard curves ranging from 1.25 to 20 μM were constructed from analytical standards and injected six times. The precision was established as 1.4–11.0% and linearity of the standard curves was established as r^2 = 0.991–1.000 (CV, 0.2%) across the identified metabolites.
(§3) Pharmacokinetic modelling of metabolites in the serum was performed with the PKSolver ‘add-on’ for Excel 2010 (Microsoft, […], USA) ([Zhang et al., 2010]) using non-compartmental analysis with the AUC calculated using the trapezoidal rule. Pharmacokinetic parameters were established for each individual analyte and presented as mean ± SEM. Urine samples collected during the first 6 h post-bolus were grouped together to the nearest hour time point (i.e. samples were not pooled but individual concentrations were averaged post-quantification) for graphical representation and to calculate total cumulative recovery. The concentration of metabolites was converted to amount recovered from urine by accounting for the molecular weight of the individual ^13C-labelled metabolites and the volume of the individual participants void and averaged across participants. Recovery of metabolites in the faeces was established from the molecular weight of the ^13C-labelled metabolite and the weight of the individual participants void adjusting for faecal water content as previously described ([Czank et al., 2013]). Urine and faecal recovery amounts are presented as mean ± SEM (n = 8), unless otherwise stated.

[3] = Serum pharmacokinetics after 500 mg oral bolus of 13C5-C3G (HPLC-ESI-MS/MS, non-compartmental analysis); conditions: for Cmax / Tmax / AUC0-48 / half-life / AUC(0-t): serum; for Cmax / Tmax / AUC0-48 / half-life / AUC(0-t) / t1/2: single 500 mg oral 13C5-C3G; for Cmax: healthy men, mean ± SEM of participants in whom detected; for Tmax / AUC0-48 / half-life / AUC(0-t) / t1/2: mean ± SEM; for AUC0-48 / AUC(0-t): trapezoidal rule; for half-life / t1/2: serum elimination half-life; for AUC(0-t): read-out: AUC0-48
Experimental: as §1, §2, §3

[4] = male, human, po, 500 mg, read-out: tmax

Recovery 6–24 h [1] | Recovery 24–48 h [1] | Total recovery [2] [µg] | Maximum concentration [2] [nM] | Tmax [2] [h] | SMILES | further results
11.0 ^b μg | 8.5 ^b μg | 79.5 ± 54.2 | 212 ± 130 |  | COc1ccc(C(=O)O)cc1O [IsoVA] | Cmax [3]: 195 nM; Tmax [3]: 2.0 h; AUC0-48 [3]: 0.189 µM·h
166.6 ± 100.6 ^g μg | 92.4 ± 49.4 ^f μg | 20.7 ± 8.0 | 108 ± 39 | 3 to 4 | COC(=O)c1ccc(O)c(O)c1 [Methyl-3,4-dihydroxybenzoate] | half-life ([3]; male, human, po, 500 mg): 21.6 ± 5.9 h; Tmax [3, 4]: 8.4 ± 5.7 h; Cmax ([3]; male, human, po, 500 mg): 12 ± 5 nM; AUC(0-t) ([3]; male, human): 0.171 ± 0.07 µM·h
25.2 ^b μg | 354.6 ± 125.0 ^h μg |  |  |  | O=C(O)/C=C/c1ccc(O)c(O)c1 [Caffeic acid] | 
35.1 ^b μg |  |  |  |  | COC(=O)c1ccc(O)c(OC)c1 [Methyl vanillate] | 
2.1 ± 1.3 ^e μg | 111.3 ± 78.7 ^f μg | 66.7 ± 21.3 | 170 ± 42 | 6 to 24 | O=Cc1c(O)cc(O)cc1O [Phloroglucinaldehyde] | Tmax [3, 4]: 2.8 ± 1.1 h; Cmax ([3]; male, human, po, 500 mg): 582 ± 536 nM; AUC(0-t) ([3]; male, human): 7.88 ± 7.77 µM·h
 | 440.4 ± 381.8 ^h μg |  |  |  | O=C(O)c1cccc(O)c1O [2,3-Dihydroxybenzoic acid] | 
0.6 ± 0.3 ^h μg | 176.1 ± 174.7 ^h μg | 183.2 ± 93.1 | 822 ± 557 |  | COc1ccc(C(=O)O)cc1OS(=O)(=O)O [IsoVA-3-sulfate] | 
16.1 ± 17.5 µg | 20.4 ± 16.2 ^i μg | 100.3 ± 30.2 | 233 ± 65 |  | O=C(O)c1ccc(OC2OC(C(=O)O)C(O)C(O)C2O)c(O)c1 (stereo not drawn) [PCA-4-glucuronide] | t1/2 [3]: 19.4 ± 3.1 h; Cmax [3]: 68 ± 61 nM; Tmax [3]: 3.8 ± 0.8 h; AUC0-48 [3]: 0.618 ± 0.489 µM·h
7.3 ^b μg | 55.4 ^b μg | 50.0 ± 2.0 | 391 ± 113 | 4 to 5 | O=C(O)Cc1ccc(O)cc1 [4-Hydroxyphenylacetic acid] | 
 | 22.0 ± 11.6 ^g μg | 13.2 ± 3.7 | 49 ± 11 | 1 to 2 | O=C(O)c1ccc(O)cc1 | 
 |  | 22.9 ± 10.6 | 76 ± 43 | 1 to 2 | COc1cc(-c2[o+]c3cc(O)cc(O)c3cc2OC2OC(CO)C(O)C(O)C2O)ccc1O (stereo not drawn) [Peonidin-3-glucoside] | 
469.7 µg |  |  |  |  | COc1cc(/C=C/C(=O)O)ccc1O [A-ring-derived ferulic acid] | t1/2 [3]: 96.5 ± 73.4 h
12.0 ± 11.4 ^g μg | 27.5 ± 27.4 ^h μg | 2415.6 ± 2223.0 | 5417 ± 4906 | 6 to 24 | O=C(O)CNC(=O)c1ccccc1 [Hippuric acid] | Maximum concentration ([2]; listed as hippuric acid): 5417 nM; half-life ([3]; male, human, po, 500 mg): 95.6 ± 77.8 h; Tmax [3, 4]: ~16 h; Cmax ([3]; male, human, po, 500 mg): 1960 ± 1390 nM; Tmax [3]: 15.7 ± 4.1 h
1.4 ^b μg | 273.3 ± 272.7 ^h μg | 64.6 | 172 | 3 to 4 | COc1ccc(C(=O)O)c(O)c1 [2-Hydroxy-4-methoxybenzoic acid] | 
10.1 ± 4.0 ^e μg | 12.8 ± 7.5 ^c μg | 28.0 | 82 | 24 to 48 | O=C(O)Cc1ccc(O)c(O)c1 [3,4-Dihydroxyphenylacetic acid] | Recovery 0–6 h [1]: 2.0 ^b μg
23.0 ± 18.1 ^g μg | 12.0 ± 10.2 ^g μg | 492.4 ± 193.0 | 1244 ± 333 |  | O=C(O)c1ccc(OS(=O)(=O)O)c(O)c1 [PCA-4-sulfate] | 
0.8 ± 0.8 ^h μg | 0.1 ^b μg | 10.0 ± 9.0 | 97 ± 94 | 5 to 6 | O=Cc1ccc(O)cc1 [4-Hydroxybenzaldehyde] | half-life ([3]; male, human, po, 500 mg): 17.9 ± 8.8 h; Tmax [3, 4]: 5.6 ± 3.1 h; Cmax ([3]; male, human, po, 500 mg): 667 ± 653 nM; AUC(0-t) ([3]; male, human): 0.663 ± 0.505 µM·h
 | 69.0 ± 39.1 ^g μg | 449.1 ± 112.4 | 1682 ± 899 |  | COc1cc(C(=O)O)ccc1OS(=O)(=O)O [VA-4-sulfate] | Recovery 0–6 h [1]: 0.6 ^b μg
 |  |  |  |  | COc1cc(/C=C/C(=O)O)ccc1O [Ferulic acid] | Recovery 6–24 h ([1]; listed as B-ring-derived ferulic acid): 2373.1 µg; Tmax [3, 4]: ~8 h; AUC(0-t) ([3]; male, human): 1.82 ± 1.05 µM·h; time of detection after consumption ([3]; serum and urine samples): ≤ 4 h; Tmax [3]: 8.2 ± 4.1 h
6.8 ± 3.0 ^c μg | 14.8 ± 8.0 ^i μg | 53.1 ± 18.1 | 129 ± 47 | 4 to 5 | O=C(O)c1ccc(OC2OC(C(=O)O)C(O)C(O)C2O)cc1 (stereo not drawn) [Benzoic acid-4-glucuronide] | Recovery 0–6 h [1]: 1.5 ^b μg; half-life ([3]; male, human, po, 500 mg): 17.1 ± 3 h; Tmax [3, 4]: 10.9 ± 3.4 h; Cmax ([3]; male, human, po, 500 mg): 74 ± 20 nM; AUC(0-t) ([3]; male, human): 1.47 ± 0.489 µM·h

SMILES | Recovery 6–24 h [1] | Recovery 24–48 h [1] | Total recovery [2] [µg] | Maximum concentration [2] [nM] | Tmax [2] [h] | further results
COc1ccc(C=O)cc1 [4-Methoxybenzaldehyde] | 20.7 ^b μg |  |  |  |  | 
O=Cc1ccc(O)c(O)c1 [3,4-Dihydroxybenzaldehyde] | 3.4 ± 3.8 ^h μg | 5.1 ± 1.8 ^i μg | 6.3 ± 2.6 | 24 ± 7 | 0 to 1 | Maximum concentration ([2]; listed as 3,4-dihydroxybenzaldehyde): 24 nM
